Assay results: patent US4517299A, “Acetylesterases” (Fujisawa Pharmaceutical Co., Ltd., priority 1980, dated 1985)

Legend:
[1] = tested on: Aureobasidium pullulans IFO 4466 Acetylesterase 4466-I (Enzyme solution A); experiment: Determination of Km, hydrolysis of cephalosporin C to deacetylcephalosporin C (HPLC); format: biochemical; conditions: 0.05M acetate buffer pH 4.0, 30° C., one hour, cephalosporin C sodium dihydrate 0.2-5%, read-out: Km (substrate cephalosporin C)
Protocol: (§1) (In case that the substrate is cephalosporin C)
(§2) Km values of Acetylesterase 4466-I and Acetylesterase 4466-II were determined in the following method.
(§3) To 0.05M acetate buffer solution (pH 4.0) containing cephalosporin C sodium dihydrate in a various concentration (0.2-5%)(4.5 ml), was added enzyme solution (0.5 ml).
(§4) The reaction mixture was incubated on a shaker at 30° C. for an hour. Subsequently, produced deacetyl cephalosporin C and unreacted cephalosporin C were determined by high pressure liquid chromatography. Km values of each esterase were calculated in a conventional manner.

[2] = tested on: Aureobasidium pullulans IFO 4466 Acetylesterase 4466-II (Enzyme solution B); experiment: as above; format: biochemical; conditions: 0.05M acetate buffer pH 4.0, 30° C., one hour, cephalosporin C sodium dihydrate 0.2-5%, read-out: Km (substrate cephalosporin C)
Protocol: as §1, §2, §3, §4

`CC(=O)OCC1=C(C(=O)O)N2C(=O)[C@@H](NC(=O)CCC[C@@H](N)C(=O)O)[C@H]2SC1` [cephalosporin C] was tested, and the Km [1] was 11.5 mM and the Km [2] was 13.7 mM.
